Patent US9932314B2, “Pyrazole compounds and their use as T-type calcium channel blockers” (IDORSIA PHARMACEUTICALS LTD, priority 2015, dated 2018)

Molecular target: T1, voltage-dependent T-type calcium channel subunit alpha-1G (Cav3.2) (Homo sapiens, UniProt O95180)
T1 construct: expressed in transfected cells; host or cells: HEK293
Assay: FLIPR calcium flux assay, HEK293 cells recombinantly expressing Cav3.2
Assay type: cell-based
Conditions: Cav3.2-channel, Fluo-4-AM, 3 min incubation, stimulation with 10 mM CaCl2
Outline: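 HEK293 cells stably expressing human Cav3.2 were loaded with Fluo-4-AM. Compounds diluted in TEAC buffer (pH 7.2) were preincubated for 3 min, then Ca2+ entry was triggered by 10 mM final CaCl2. Inhibition curves were fitted sigmoidally to the area under the fluorescence trace.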

T1 sequence (O95180 whole entry): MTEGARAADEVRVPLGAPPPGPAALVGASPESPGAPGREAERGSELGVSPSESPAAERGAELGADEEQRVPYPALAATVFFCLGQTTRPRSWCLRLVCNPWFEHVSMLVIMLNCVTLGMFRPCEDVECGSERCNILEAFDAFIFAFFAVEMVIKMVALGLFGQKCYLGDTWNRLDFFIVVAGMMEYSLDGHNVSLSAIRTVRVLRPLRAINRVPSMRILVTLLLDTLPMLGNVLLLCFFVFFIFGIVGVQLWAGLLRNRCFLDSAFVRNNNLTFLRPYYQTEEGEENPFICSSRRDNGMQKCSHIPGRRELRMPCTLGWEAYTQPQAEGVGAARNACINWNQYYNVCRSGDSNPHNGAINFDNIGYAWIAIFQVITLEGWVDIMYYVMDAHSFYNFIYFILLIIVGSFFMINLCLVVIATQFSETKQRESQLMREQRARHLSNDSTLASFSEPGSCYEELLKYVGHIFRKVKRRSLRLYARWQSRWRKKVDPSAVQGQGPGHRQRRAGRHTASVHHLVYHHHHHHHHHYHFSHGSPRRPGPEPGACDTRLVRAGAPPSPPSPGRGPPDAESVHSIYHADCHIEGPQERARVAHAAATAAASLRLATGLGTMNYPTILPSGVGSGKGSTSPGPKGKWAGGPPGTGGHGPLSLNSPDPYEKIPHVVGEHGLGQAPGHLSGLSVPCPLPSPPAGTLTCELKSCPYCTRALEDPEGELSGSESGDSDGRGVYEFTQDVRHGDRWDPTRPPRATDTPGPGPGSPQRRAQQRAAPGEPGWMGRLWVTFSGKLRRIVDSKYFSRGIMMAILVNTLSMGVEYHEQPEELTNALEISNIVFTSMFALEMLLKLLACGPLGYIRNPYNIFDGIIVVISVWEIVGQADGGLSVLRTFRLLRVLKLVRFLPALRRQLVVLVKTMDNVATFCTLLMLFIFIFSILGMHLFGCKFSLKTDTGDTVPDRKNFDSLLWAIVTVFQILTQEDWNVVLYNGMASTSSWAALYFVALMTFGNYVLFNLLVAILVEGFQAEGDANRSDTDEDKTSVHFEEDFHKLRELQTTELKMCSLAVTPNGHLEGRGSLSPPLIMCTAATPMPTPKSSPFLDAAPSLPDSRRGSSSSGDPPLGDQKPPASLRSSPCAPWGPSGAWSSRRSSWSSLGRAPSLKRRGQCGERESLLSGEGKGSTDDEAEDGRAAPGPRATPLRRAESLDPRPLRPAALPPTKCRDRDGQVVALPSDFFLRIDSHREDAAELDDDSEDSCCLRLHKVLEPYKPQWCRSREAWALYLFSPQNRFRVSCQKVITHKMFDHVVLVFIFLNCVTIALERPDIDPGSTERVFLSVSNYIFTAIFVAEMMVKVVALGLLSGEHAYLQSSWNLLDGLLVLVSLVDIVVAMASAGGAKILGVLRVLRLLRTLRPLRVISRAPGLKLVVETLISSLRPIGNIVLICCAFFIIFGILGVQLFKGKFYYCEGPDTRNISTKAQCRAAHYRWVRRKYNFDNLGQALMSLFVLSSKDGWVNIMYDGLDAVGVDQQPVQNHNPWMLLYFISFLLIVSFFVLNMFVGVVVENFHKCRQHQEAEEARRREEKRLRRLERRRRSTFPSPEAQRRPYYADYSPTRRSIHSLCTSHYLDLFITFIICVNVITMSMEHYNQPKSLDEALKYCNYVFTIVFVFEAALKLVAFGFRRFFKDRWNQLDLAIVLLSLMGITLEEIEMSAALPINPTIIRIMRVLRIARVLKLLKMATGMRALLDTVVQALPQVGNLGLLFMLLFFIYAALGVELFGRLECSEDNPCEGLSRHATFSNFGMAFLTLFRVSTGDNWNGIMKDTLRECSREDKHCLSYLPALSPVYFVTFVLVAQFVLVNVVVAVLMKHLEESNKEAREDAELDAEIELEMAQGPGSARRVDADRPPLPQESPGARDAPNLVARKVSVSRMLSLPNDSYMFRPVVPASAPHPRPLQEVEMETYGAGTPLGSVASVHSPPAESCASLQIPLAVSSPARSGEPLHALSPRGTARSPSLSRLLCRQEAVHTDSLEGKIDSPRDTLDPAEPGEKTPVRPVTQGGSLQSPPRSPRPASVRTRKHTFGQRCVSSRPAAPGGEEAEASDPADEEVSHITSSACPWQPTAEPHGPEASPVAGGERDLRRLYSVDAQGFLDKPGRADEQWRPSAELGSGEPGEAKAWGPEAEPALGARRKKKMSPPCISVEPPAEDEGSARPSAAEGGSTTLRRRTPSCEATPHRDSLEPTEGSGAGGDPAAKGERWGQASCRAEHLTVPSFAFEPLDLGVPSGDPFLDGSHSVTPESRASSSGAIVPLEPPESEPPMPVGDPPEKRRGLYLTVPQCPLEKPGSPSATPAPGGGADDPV

SMILES | IC50
O=C(Cc1ccc(C2CC2)nc1)Nc1ccn(Cc2ccc(F)c(Cl)c2)n1 [Example 194, N-[1-(3-Chloro-4-fluoro-benzyl)-1H-pyrazol-3-yl]-2-(6-cyclopropyl-pyridin-3-yl)-acetamide] | 61 nM
Cn1ccc2ccc(CC(=O)Nc3ccn(Cc4ccc(C#N)cn4)n3)cc21 [Example 302, N-[1-(5-Cyano-pyridin-2-ylmethyl)-1H-pyrazol-3-yl]-2-(1-methyl-1H-indol-6-yl)-acetamide] | 39 nM
CC(C)c1ccc(CC(=O)Nc2ccn(Cc3ccc(C(F)(F)F)cn3)n2)cc1 [Example 109, 2-(4-Isopropyl-phenyl)-N-[1-(5-trifluoromethyl-pyridin-2-ylmethyl)-1H-pyrazol-3-yl]-acetamide] | 22 nM
O=C(Cc1ccc(N2CCCC2)nc1)Nc1ccn(Cc2ccc(F)c(F)c2)n1 [Example 175, N-[1-(3,4-Difluoro-benzyl)-1H-pyrazol-3-yl]-2-(6-pyrrolidin-1-yl-pyridin-3-yl)-acetamide] | 17 nM
O=C(Cc1ccc(N2CC(F)C2)nc1)Nc1ccn(Cc2ccc(F)c(F)c2)n1 [Example 160, N-[1-(3,4-Difluoro-benzyl)-1H-pyrazol-3-yl]-2-[6-(3-fluoro-azetidin-1-yl)-pyridin-3-yl]-acetamide] | 29 nM
CC(C)c1ccc(CC(=O)Nc2ccn(Cc3ccc(OCC(F)(F)F)cn3)n2)cc1 [Example 93, 2-(4-Isopropyl-phenyl)-N-{1-[5-(2,2,2-trifluoro-ethoxy)-pyridin-2-ylmethyl]-1H-pyrazol-3-yl}-acetamide] | 39 nM
CN(C)c1ccc(CC(=O)Nc2ccn(Cc3ccc(OC(F)(F)F)cc3)n2)cn1 [Example 37, 2-(6-Dimethylamino-pyridin-3-yl)-N-[1-(4-trifluoromethoxy-benzyl)-1H-pyrazol-3-yl]-acetamide] | 29 nM
N#Cc1ccc(Cn2ccc(NC(=O)Cc3cnc(N4CCCC4)c(F)c3)n2)nc1 [Example 341, N-[1-(5-Cyano-pyridin-2-ylmethyl)-1H-pyrazol-3-yl]-2-(5-fluoro-6-pyrrolidin-1-yl-pyridin-3-yl)-acetamide] | 64 nM
CCc1ccc(Cn2ccc(NC(=O)Cc3ccc(N(C)C)nc3)n2)cc1 [Example 35, 2-(6-Dimethylamino-pyridin-3-yl)-N-[1-(4-ethyl-benzyl)-1H-pyrazol-3-yl]-acetamide] | 43 nM
CC(C)(C)c1ccc(CC(=O)Nc2ccn(Cc3cc(F)c(C#N)c(F)c3)n2)cc1 [Example 352, 2-(4-tert-Butyl-phenyl)-N-[1-(4-cyano-3,5-difluoro-benzyl)-1H-pyrazol-3-yl]-acetamide] | 22 nM
COc1ccc(Cn2ccc(NC(=O)Cc3ccc(N(C)CC4CC4)nc3)n2)cc1 [Example 188, 2-[6-(Cyclopropylmethyl-methyl-amino)-pyridin-3-yl]-N-[1-(4-methoxy-benzyl)-1H-pyrazol-3-yl]-acetamide] | 60 nM
O=C(Cc1ccc2cccnc2c1)Nc1ccn(Cc2ccc(F)c(F)c2)n1 [Example 206, N-[1-(3,4-Difluoro-benzyl)-1H-pyrazol-3-yl]-2-quinolin-7-yl-acetamide] | 50 nM
CC(C)c1ccc(CC(=O)Nc2ccn(Cc3ccc(OC4CC4)cc3)n2)cc1 [Example 195, N-[1-(4-Cyclopropoxy-benzyl)-1H-pyrazol-3-yl]-2-(4-isopropyl-phenyl)-acetamide] | 47 nM
COc1ccc(Cn2ccc(NC(=O)Cc3ccc(N(C)C)nc3)n2)cc1 [Example 14, 2-(6-Dimethylamino-pyridin-3-yl)-N-[1-(4-methoxy-benzyl)-1H-pyrazol-3-yl]-acetamide] | 650 nM
CC1(COc2ccc(CC(=O)Nc3ccn(Cc4ccc(F)c(C#N)c4)n3)cc2)COC1 [Example 280, N-[1-(3-Cyano-4-fluoro-benzyl)-1H-pyrazol-3-yl]-2-[4-(3-methyl-oxetan-3-ylmethoxy)-phenyl]-acetamide] | 138 nM
CC1(COc2ccc(CC(=O)Nc3ccn(Cc4ccc(C#N)c(F)c4)n3)cc2)COC1 [Example 263, N-[1-(4-Cyano-3-fluoro-benzyl)-1H-pyrazol-3-yl]-2-[4-(3-methyl-oxetan-3-ylmethoxy)-phenyl]-acetamide] | 97 nM
CCN(CC)c1ccc(CC(=O)Nc2ccn(Cc3ccc(C#N)cc3)n2)cn1 [Example 189, N-[1-(4-Cyano-benzyl)-1H-pyrazol-3-yl]-2-(6-diethylamino-pyridin-3-yl)-acetamide] | 88 nM
O=C(Cc1ccc(-c2ccncc2)cc1)Nc1ccn(Cc2ccc(F)cc2)n1 [Example 84, N-[1-(4-Fluoro-benzyl)-1H-pyrazol-3-yl]-2-(4-pyridin-4-yl-phenyl)-acetamide] | 18 nM
Cn1ncc2cc(CC(=O)Nc3ccn(Cc4ccc(C#N)cc4)n3)ccc21 [Example 252, N-[1-(4-Cyano-benzyl)-1H-pyrazol-3-yl]-2-(1-methyl-1H-indazol-5-yl)-acetamide] | 56 nM
CC(C)c1ccc(CC(=O)Nc2ccn(Cc3ccc(N(C)C)cn3)n2)cc1 [Example 107, N-[1-(5-Dimethylamino-pyridin-2-ylmethyl)-1H-pyrazol-3-yl]-2-(4-isopropyl-phenyl)-acetamide] | 338 nM

SMILES | IC50
COc1ccc(Cn2ccc(NC(=O)Cc3ccc(N4CCCC4)nc3)n2)cc1 [Example 178, N-[1-(4-Methoxy-benzyl)-1H-pyrazol-3-yl]-2-(6-pyrrolidin-1-yl-pyridin-3-yl)-acetamide] | 99 nM
CCN(CC)c1ccc(CC(=O)Nc2ccn(Cc3ccc(C#N)cc3)n2)cc1 [Example 114, N-[1-(4-Cyano-benzyl)-1H-pyrazol-3-yl]-2-(4-diethylamino-phenyl)-acetamide] | 14 nM
CC(C)Oc1ccc(Cn2ccc(NC(=O)Cc3ccc(C(C)C)cc3)n2)nc1 [Example 105, N-[1-(5-Isopropoxy-pyridin-2-ylmethyl)-1H-pyrazol-3-yl]-2-(4-isopropyl-phenyl)-acetamide] | 31 nM
O=C(Cc1ccc(OC2CC2)cc1)Nc1ccn(Cc2ccc(F)c(F)c2)n1 [Example 66, 2-(4-Cyclopropoxy-phenyl)-N-[1-(3,4-difluoro-benzyl)-1H-pyrazol-3-yl]-acetamide] | 19 nM
O=C(Cc1ccc(-c2ccncn2)cc1)Nc1ccn(Cc2ccc(F)cc2)n1 [Example 87, N-[1-(4-Fluoro-benzyl)-1H-pyrazol-3-yl]-2-(4-pyrimidin-4-yl-phenyl)-acetamide] | 157 nM
Cc1nccnc1-c1ccc(CC(=O)Nc2ccn(Cc3ccc(F)cc3)n2)cc1 [Example 80, N-[1-(4-Fluoro-benzyl)-1H-pyrazol-3-yl]-2-[4-(3-methyl-pyrazin-2-yl)-phenyl]-acetamide] | 92 nM
CN(CC1CC1)c1ccc(CC(=O)Nc2ccn(Cc3ccc(F)cc3)n2)cn1 [Example 187, 2-[6-(Cyclopropylmethyl-methyl-amino)-pyridin-3-yl]-N-[1-(4-fluoro-benzyl)-1H-pyrazol-3-yl]-acetamide] | 15 nM
N#Cc1ccc(Cn2ccc(NC(=O)Cc3ccc(OCC4(F)COC4)cc3)n2)nc1 [Example 248, N-[1-(5-Cyano-pyridin-2-ylmethyl)-1H-pyrazol-3-yl]-2-[4-(3-fluoro-oxetan-3-ylmethoxy)-phenyl]-acetamide] | 1810 nM
N#Cc1ccc(Cn2ccc(NC(=O)Cc3ccc(OC4CCC4)cc3)n2)nc1 [Example 196, N-[1-(5-Cyano-pyridin-2-ylmethyl)-1H-pyrazol-3-yl]-2-(4-cyclobutoxy-phenyl)-acetamide] | 176 nM
Cc1cc(Cn2ccc(NC(=O)Cc3ccc(N(C)C)cc3)n2)cc(C)c1F [Example 25, 2-(4-Dimethylamino-phenyl)-N-[1-(4-fluoro-3,5-dimethyl-benzyl)-1H-pyrazol-3-yl]-acetamide] | 64 nM
Cc1cc(CC(=O)Nc2ccn(Cc3cc(C#N)c(F)cn3)n2)ccc1OCC(F)(F)F [Example 399, N-[1-(4-Cyano-5-fluoro-pyridin-2-ylmethyl)-1H-pyrazol-3-yl]-2-[3-methyl-4-(2,2,2-trifluoro-ethoxy)-phenyl]-acetamide] | 60 nM
COc1nc(Cn2ccc(NC(=O)Cc3ccc(C(C)C)cc3)n2)ccc1C#N [Example 116, N-[1-(5-Cyano-6-methoxy-pyridin-2-ylmethyl)-1H-pyrazol-3-yl]-2-(4-isopropyl-phenyl)-acetamide] | 75 nM
N#Cc1ccc(Cn2ccc(NC(=O)Cc3ccc(OC4COC4)cc3)n2)cc1F [Example 254, N-[1-(4-Cyano-3-fluoro-benzyl)-1H-pyrazol-3-yl]-2-[4-(oxetan-3-yloxy)-phenyl]-acetamide] | 100 nM
Cn1cnc2cc(CC(=O)Nc3ccn(Cc4ccc(F)c(F)c4)n3)ccc21 [Example 230, N-[1-(3,4-Difluoro-benzyl)-1H-pyrazol-3-yl]-2-(1-methyl-1H-benzoimidazol-5-yl)-acetamide] | 255 nM
CCn1ncc2cc(CC(=O)Nc3ccn(Cc4cc(F)c(C#N)c(F)c4)n3)ccc21 [Example 357, N-[1-(4-Cyano-3,5-difluoro-benzyl)-1H-pyrazol-3-yl]-2-(1-ethyl-1H-indazol-5-yl)-acetamide] | 34 nM
O=C(Cc1ccc2nccnc2c1)Nc1ccn(Cc2ccc(F)c(F)c2)n1 [Example 205, N-[1-(3,4-Difluoro-benzyl)-1H-pyrazol-3-yl]-2-quinoxalin-6-yl-acetamide] | 288 nM
N#Cc1ccc(Cn2ccc(NC(=O)Cc3ccc(N4CC[C@@H](F)C4)cc3)n2)cc1 [Example 69, N-[1-(4-Cyano-benzyl)-1H-pyrazol-3-yl]-2-[4-((R)-3-fluoro-pyrrolidin-1-yl)-phenyl]-acetamide] | 16 nM
Cc1nc(Cn2ccc(NC(=O)Cc3ccc(C(C)C)cc3)n2)ccc1C#N [Example 132, N-[1-(5-Cyano-6-methyl-pyridin-2-ylmethyl)-1H-pyrazol-3-yl]-2-(4-isopropyl-phenyl)-acetamide] | 51 nM
Cc1cn(C)c2ncc(CC(=O)Nc3ccn(Cc4ccc(F)c(C#N)c4)n3)cc12 [Example 321, N-[1-(3-Cyano-4-fluoro-benzyl)-1H-pyrazol-3-yl]-2-(1,3-dimethyl-1H-pyrrolo[2,3-b]pyridin-5-yl)-acetamide] | 91 nM
